Several values for one entry are separate records, joined by “and”; a condition that tells them apart may be missing. Identical values can stand only once. Entries after “also recorded” stand apart in the source; their conditions may differ. Like-named read-outs stand apart in the source and are kept apart here.
Key:
[1] = system: PANC-1 cells; assay: Transcription profiling of CXR1002-treated PANC-1 cells (ER stress genes, Ingenuity); format: cell-based, human; conditions: PANC-1, 24 hrs at IC15
Description: Representation analysis of the in vitro 4996 signature list identified a number of pathways that were over-represented.

[2] = system: PANC-1 cells; assay: Western blot of PCNA and cleaved PARP in PANC-1 cells; format: cell-based, human; conditions: 450 μM, 24 hrs
Description: PCNA is a marker for cell proliferation and cleaved PARP is representative of caspase cleavage and apoptosis. […] Western blot analysis was performed with increasing amounts of protein, ranging between 2 and 20 μg (lanes 1-8). Positive control protein was derived from MCF7 cells (PCNA blot, lane 9) or from HeLa cells treated with staurosporine for 3 hours (Cleaved PARP blot, lanes 9, 10). Levels of total β-Actin are shown as a control for protein loading.
Cells respond to the accumulation of unfolded proteins in the ER by a rescue process called the unfolded protein response (UPR). However, if the unfolded protein accumulation is persistent and the stress cannot be relieved, UPR signalling switches from prosurvival to proapoptotic (Kim (2006)), (Szegezdi (2006)), usually involving processing of caspases (Chang (2006)). Consistent with this hypothesis, CXR1002-treated PANC-1 cells show reduced proliferation and cleavage of the caspase substrate poly-ADP ribose polymerase (PARP) (FIG. 2) in PANC-1 cells.

[3] = system: HT-29; assay: SRB cytotoxicity assay 48 hr; format: cell-based, human; conditions: read-out: IC50 Values After 48 Hrs Exposure
Description: (§1) The SRB assay was performed according to the method specified by the NIC/NIH. […] Assay replicates were independent in time and up to 4 replicates were performed per cell line.

[4] = system: MDA-MB-157; assay: SRB cytotoxicity assay 48 hr; format: cell-based, human; conditions: read-out: IC50 Values After 48 Hrs Exposure
Description: as §1

[5] = system: HepG2; assay: SRB cytotoxicity assay 48 hr; format: cell-based, human; conditions: read-out: IC50 Values After 48 Hrs Exposure
Description: as §1

[6] = system: Hep3B; assay: SRB cytotoxicity assay 48 hr; format: cell-based, human; conditions: read-out: IC50 Values After 48 Hrs Exposure
Description: as §1

[7] = system: A549; assay: SRB cytotoxicity assay 48 hr; format: cell-based, human; conditions: read-out: IC50 Values After 48 Hrs Exposure
Description: as §1

[8] = system: BxPc3; assay: ATP depletion cytotoxicity assay 48 hr; format: cell-based, human
Description: (§2) Following exposure to Test Items, the CellTitre-Glo Luminescent Cell Viability Assay to measure ATP content was performed according to the manufacturer's detailed instructions (Promega Corporation, Technical Bulletin No. 288, and Cell notes, Issue 10, 2004).
Cells were plated at the optimal plating density for that cell line in 96-well plates and allowed to attach overnight. […] Cells were exposed to these compounds in Roswell Park Memorial Institute (RPMI) medium containing 10% Foetal Calf Serum (FCS) and 2 mM Glutamine at 37° C. and 5% CO2 for 48 hours. There were 3 replicates for each test item concentration.
(§3) Following exposure to Test Items, the CellTitre-Glo Luminescent Cell Viability Assay to measure ATP content will be performed according to the manufacturer's detailed instructions (Promega Corporation, Technical Bulletin No. 288, and Cell notes, Issue 10, 2004).

[9] = system: Capan2; assay: ATP depletion cytotoxicity assay 48 hr; format: cell-based, human
Description: (§4) Assay replicates were independent in time and up to 4 replicates were performed per cell line.
(§5) Cells were plated at the optimal plating density for that cell line in 96-well plates and allowed to attach overnight. The next day, the medium was removed and replaced with fresh medium containing the dose ranges of test items. […] There were 3 replicates for each test item concentration.
as §2
(§6) Cells were plated at the optimal plating density for that cell line in 96-well plates and allowed to attach overnight. The next day, cells were pre-treated with the inhibitors UO126 or LY294002 (see Tables 18 & 20) for 2 hrs, the medium was removed and replaced with fresh medium containing the appropriate dose of the test item. […] Cells were exposed to these compounds in Roswell Park Memorial Institute (RPMI) medium containing 10% Foetal Calf Serum (FCS) and 2 mM Glutamine at 37° C. and 5% CO2 for 48 hours. There were 3 replicates for each test item concentration.
as §3

[10] = system: SK-OV3; assay: ATP depletion cytotoxicity assay 48 hr; format: cell-based, human
Description: as §4, §5, §2, §6, §3

[11] = system: TOV-21G; assay: ATP depletion cytotoxicity assay 48 hr; format: cell-based, human
Description: as §4, §5, §2, §6, §3

[12] = system: PC3; assay: ATP depletion cytotoxicity assay 48 hr; format: cell-based, human
Description: as §4, §5, §2, §6, §3

[13] = system: CaCo-2; assay: ATP depletion cytotoxicity assay 48 hr; format: cell-based, human
Description: as §4, §5, §2, §6, §3

[14] = system: MDA-MB-157; assay: ATP depletion cytotoxicity assay 48 hr; format: cell-based, human
Description: as §4, §5, §2, §6, §3

[15] = system: MES-SA; assay: ATP depletion cytotoxicity assay 48 hr; format: cell-based; conditions: Homo sapiens, Study CXR0798, read-out: IC50 1
Description: as §1

[16] = system: HepG2 (liver) xenograft tumours; assay: HepG2 xenograft model of liver carcinoma; format: in vivo, nude mouse
Description: There was no obvious difference between the two different dosing regimens.

[17] = system: patients with advanced cancer; assay: Phase I study CXR1002-001: safety and toxicity; format: in vivo, human; conditions: at the doses examined to date
Description: These patients then underwent repeat dosing schedule with the same dose of CXR1002. […] Dose limiting toxicity (DLT) will be based on the toxicity assessments over the first 3-week period of the repeat dosing schedule. PK samples (single blood sample) were taken on the following basis: • Every 6 weeks during the repeat dosing phase • If dosing is interrupted or stopped, samples will be taken at intervals according to patient convenience • PK sampling for safety evaluation may take place at any time, as clinically indicated
In all dose cohorts subsequent to the initial dose cohort, all patients will be treated with weekly administration of study drug from the start of dosing. Dose escalation was performed after all patients at the preceding dose level had completed a 3-week repeat dosing period.

[18] = Water solubility; format: physicochemical
[19] = system: XBP1 mRNA; assay: RT-PCR analysis of XBP1 mRNA splicing in Panc-1 and HepG2 cells; format: cell-based, human; conditions: Panc-1 500-740 μM, HepG2 300 μM; 1-4 days
Description: XBP1-u: unspliced form of XBPI; XBPI-s: spliced form of XBP1.
1. Control; 2. 500 μM/1 day; 3. 500 μM/2 days; […]; 5. 500 μM/4 days; […]; 7. 740 μM/2 days.
Control/1 day; 2. Control/2 days; 3. Control/4 days; 4. Tunicamycin for 24 h; 5. Tunicamycin for 6 h; 6. 300 μM/1 day; 7. 300 μM/2 days; 8. 300 μM/3 days.

[20] = Metabolism; conditions: patients / human
Description: It is presumed that CXR1002 will eventually reach a steady state level after a number of doses, in an analogous way to its accumulative exposure in monkeys.
Unlike most other anti-tumour agents, PFOA is efficiently absorbed following oral exposure.

[21] = system: panel of tumour cell lines; assay: ATP cytotoxicity assay on the panel of tumour cell lines (CXR1002 alone; test items alone vs combined with CXR1002); conditions: Homo sapiens, read-out: cytotoxicity IC50 to tumour cells (lowest of range)
Description: as §1
Cells were plated at the optimal plating density for that cell line in 96-well plates and allowed to attach overnight. The next day, the medium was removed and replaced with fresh medium containing the dose ranges of test items. The cells were exposed to 5-FU, cisplatin, docetaxel, doxorubicin, geldanamycin, gemcitabine, rapamycin or roscovitine in Roswell Park Memorial Institute (RPMI) medium containing 10% Foetal Calf Serum (FCS) and 2 mM Glutamine at 37° C. and 5% CO2 for 48 hours. […] There were 3 replicates for each test item concentration.
as §2

[22] = ATP depletion, 48 hrs, read-out: IC50 1-4 (independent replicates)
[23] = read-out: IC50 1-4 (independent replicates)

## O=C(O)C(F)(F)C(F)(F)C(F)(F)C(F)(F)C(F)(F)C(F)(F)C(F)(F)F [CXR1002]
[1]
  ATF3 induction: 3 fold
[2]
  PCNA protein level (cell proliferation marker): reduced PCNA levels
  cleaved PARP protein level (apoptosis marker): increased cleaved PARP
[3]
  IC50: 342 ± 10.6 µM
[4]
  IC50: 463 ± 168 µM
[5]
  IC50: 162 ± 31.8 µM
[6]
  IC50: 215 ± 28.3 µM
[7]
  IC50: 230 ± 21.8 µM
[8]; [22]
  IC50: 350 µM and 400 µM
[8]; Homo sapiens, BXPC-3, 48 h, ATP depletion, 48 hrs, read-out: IC50 1-4 (independent replicates)
  IC50: 370 µM
[8]; Homo sapiens, BXPC-3, 48 h, ATP depletion, 48 hrs, read-out: IC50 Mean
  IC50: 373 µM
[8]; Homo sapiens, BXPC-3, 48 h, Example 7, 48 hour, CXR1002 0-1 mM, U0126 fixed 10 μM where combined, read-out: IC50
  IC50: 381 µM
[9]; Homo sapiens, Capan-2, 48 h, read-out: IC50 1-4 (independent replicates), ATP depletion, 48 hrs, Capan2
  IC50: 850 µM
[9]; Homo sapiens, Capan-2, 48 h, read-out: IC50 Mean, ATP depletion, 48 hrs, Capan2
  IC50: 817 µM
[9]; read-out: IC50 1-4 (independent replicates), ATP depletion, 48 hrs, Capan2
  IC50: 750 µM
[10]; Homo sapiens, SK-OV-3, 48 h, read-out: IC50 1-4 (independent replicates)
  IC50: 550 µM
[10]; Homo sapiens, SK-OV-3, 48 h, read-out: IC50 Mean
  IC50: 535 µM
[10]; [23]
  IC50: 520 µM
[11]; [22]
  IC50: 600 µM and 700 µM
[11]; Homo sapiens, TOV21G, 48 h, ATP depletion, 48 hrs, read-out: IC50 1-4 (independent replicates)
  IC50: 610 µM
[11]; Homo sapiens, TOV21G, 48 h, ATP depletion, 48 hrs, read-out: IC50 Mean
  IC50: 637 µM
[11]; Homo sapiens, TOV21G, 48 h, Example 7, 48 hour, CXR1002 0-1 mM, U0126 fixed 10 μM where combined, read-out: IC50
  IC50: 615 µM
[12]; Homo sapiens, PC-3, 48 h, read-out: IC50 1-4 (independent replicates)
  IC50: 650 µM
[12]; Homo sapiens, PC-3, 48 h, read-out: IC50 Mean
  IC50: 642 µM
[12]; [23]
  IC50: 625 µM
[13]; ATP depletion, 48 hrs, CaCo-2, read-out: IC50 1-4 (independent replicates)
  IC50: 690 µM and 670 µM
[13]; Homo sapiens, Caco-2, 48 h, ATP depletion, 48 hrs, CaCo-2, read-out: IC50 1-4 (independent replicates)
  IC50: 680 µM
[13]; Homo sapiens, Caco-2, 48 h, ATP depletion, 48 hrs, CaCo-2, read-out: IC50 Mean
  IC50: 680 µM
[13]; Homo sapiens, Caco-2, 48 h, Example 7, 48 hour, CaCO2, CXR1002 0-1 mM, U0126 fixed 10 μM where combined, read-out: IC50
  IC50: 704 µM
[14]; Homo sapiens, MDA-MB-157, 48 h, read-out: IC50 1-4 (independent replicates), ATP depletion, 48 hrs, MDA-MB-157
  IC50: 670 µM
[14]; Homo sapiens, MDA-MB-157, 48 h, read-out: IC50 Mean, ATP depletion, 48 hrs, MDA-MB-157
  IC50: 665 µM
[14]; read-out: IC50 1-4 (independent replicates), ATP depletion, 48 hrs, MDA-MB-157
  IC50: 675 µM and 650 µM
[15]
  IC50: > 1000 µM
[16]; 25 mg/kg 2× or 3× per week
  growth inhibition response: modest response
[16]; HepG2, 25 mg/kg, combined regimens, Day 53
  Absolute Tumour Volume as a Percentage of Saline Control: 77.05%
[16]; HepG2 model, ×3 weekly regimen, Days 60-64
  Terminal CXR1002 plasma levels: 520 µM and 520 ± 46 µM
[17]
  clinical toxicity: relatively non-toxic
[18]
  solubility in water: freely soluble in water; also recorded: highly water soluble
[19]
  XBP-1 mRNA splicing: varies from predominately unspliced to spliced
[20]
  metabolism: not metabolised
[21]
  IC50: ≥ 273 µM

Source: patent US20130029928A1 (priority 2010, published 2013)
